Results reported in US7395112B2, “Method and apparatus for treating tumors using low strength electric fields” (priority 2002, dated 2008).

System: CT-26 colon carcinoma
Assay: LEF with chemotherapy (LEFCT-EC) in mice bearing 5 mm CT-26 tumors
Type: in vivo, BALB/C mice
Description: Mice: BALB/C male mice were obtained from the breeding colony of Tel-Aviv University, Israel. Mice were used at 8-12 weeks of age. Animal care and experimentation were performed in accordance with the Tel-Aviv University guidelines.
Tumor: Colon carcinoma tumors were grown in mice with CT-26, a metastatic colon carcinoma cell line induced in a BALB/c mouse by chemical carcinogenesis. Cells were cultured in Dulbecco's modified Eagle's medium (DMEM) supplemented with 100 U/ml penicillin, 100 μg/ml streptomycin, 2 mM L-glutamine; 1 mM sodium pyruvate; 1% non-essential amino acid solution; 10% heat-inactivated fetal calf serum. Cultures were maintained at 37° C. in a humidified incubator with a 5% CO2 atmosphere.
Tumor cell inoculation: Mice were inoculated intracutaneously with 10^5 CT-26 cells suspended in 100 μL PBS into the low lateral side of the back. Local tumor growth was determined by measuring three mutually orthogonal tumor diameters with a caliper. The volume of tumor was calculated using the formula: Vol=D1×D2×D3×π/6, where D1, D2, D3 are three mutually orthogonal tumor diameters.
Low-strength electric field stimulation: To subject tumors to LEFs, stainless steel needles were used as electrodes. Tumors 5 mm in diameter (about 65 mm^3) were transfixed by electrode needles, with one cathode in the center of the tumor and three or four peripheral anodes. The electrodes were connected to an electric pulse generator and to an oscilloscope. Pulsed LEFs with a repetition frequency of 500 Hz and a pulse width of 180 μs were applied at 20, 40, 60 and 70 V/cm for a duration 12 min or 20 min. The electric pulses were administered 2-4 min following chemotherapeutic drug administration. Mice were anesthetized 10 min before the procedure.
Chemotherapeutic agents: Bleomycin (Sigma Israel Chemicals Ltd., Israel; Megapharm Ltd., Israel) was kept at a temperature of 2-8° C., and was dissolved in pyrogen-free PBS to a concentration enabling dosages of 50 U/kg body weight prior to use. BCNU was administered at a dosage of 35 mg/kg body weight, and 5-FU (Abic, Israel) was used at a dose of 100 mg/kg body weight.
Anesthesia: Mice were anesthetized using an anesthetic cocktail comprising a dose of imalgen at 100 mg/kg body weight and xylazine hydrochloride at 6.25 mg/kg body weight dissolved in PBS injected intraperitoneally in a volume of 0.25 ml per mouse 10 min prior to LEF treatment.
Statistical analysis: Survival times (Kaplan-Meir test), survival comparisons between groups (Mantel-Cox test), and tumor volume differences between groups were plotted using StatSoft “Statistica” statistical software.
Effect of LEF duration and strength on potentiation of bleomycin for treatment of colon carcinoma: In order to determine the optimal LEFCT-EC/bleomycin therapy for treatment of colon cancer, mice bearing CT-26 tumors were treated with LEFs of 40 V/cm for 12 min, and 20 V/cm for 12 or 20 min with or without administration of bleomycin, and survival was analyzed.

bleomycin
survival with bleomycin + LEF compared with LEF alone (LEF 40 V/cm 12 min, 20 V/cm 12 or 20 min, all combinations tested): greatly enhanced
cure rate (LEFCT-EC: drug + LEF 40 V/cm 12 min, 5 mm tumors): 33%
tumor size with drug + LEF relative to drug only (after 21 days): less than half the size
survival rate (bleomycin intratumoral + LEF 40 V/cm 12 min, after 60 days, unchanged until day 120): 33%
time after which half the mice died (drug alone, no LEF, intratumoral injection (5-FU intratumoral or intravenous), 5 mm tumors): about 51 days
